Laboratory results: US20240390407A1, “PROMOTER FOR DIFFERENTIATION INTO CARTILAGE CELL, CARTILAGE CELL PROPAGATION PROMOTER, AND CARTILAGE MATRIX PRODUCTION PROMOTER” (HOKURIKU UNIVERSITY, priority 2021, published 2024)

What was measured:
Assay type in all cases: cell-based
[1] = test system: chondrogenic progenitor ATDC5 cells; assay: Quantification of intracellular sulfated glycosaminoglycan (dimethylmethylene blue, absorbance at 525 nm)
Description: (§1) Using chondrogenic progenitor ATDC5 cells, the effects of liquiritin on the differentiation of chondrogenic progenitor cells into chondrocytes, proliferation of chondrocytes, and production of cartilaginous matrix were investigated as follows.
(§2) ATDC5 cells (obtained from RIKEN BioResource Research Center) were seeded at 1×10^4 cells/well in a microplate containing 0.5 mL of Dulbecco's modified Eagle medium (DMEM)/Ham's F-12 medium (manufactured by FUJIFILM Wako Pure Chemical Corporation), and cultured at 37° C. in the presence of 5% by volume carbon dioxide. […]
Each sample (20 μL) was blended with 200 μL of a 16 mg/L dimethylmethylene blue solution (prepared with an aqueous solution (pH=3.0) containing 40 mM glycine, 27 mM sodium chloride, and 10 mM acetic acid), and the absorbance at 525 nm was measured and sulfated glycosaminoglycan in the sample was quantified (n=4 for each). The quantification results are shown in FIG. 2 as meantstandard deviation. As regards the quantification results, an unpaired t-test was performed between each group added with liquiritin at the above-mentioned concentration and the control.

[2] = test system: chondrogenic progenitor ATDC5 cells; assay: Measurement of number of cells under microscope
Description: Using chondrogenic progenitor ATDC5 cells, the effects of liquiritin on the differentiation of chondrogenic progenitor cells into chondrocytes, proliferation of chondrocytes, and production of cartilaginous matrix were investigated as follows. ATDC5 cells (obtained from RIKEN BioResource Research Center) were seeded at 1×10^4 cells/well in a microplate containing 0.5 mL of Dulbecco's modified Eagle medium (DMEM)/Ham's F-12 medium (manufactured by FUJIFILM Wako Pure Chemical Corporation), and cultured at 37° C. in the presence of 5% by volume carbon dioxide. […] In addition, on day 24 of culture, the cells were washed with 10 mM phosphate buffered saline (pH=7.4), the cells were detached using 0.25 (w/v) % trypsin-1 mM tetrasodium ethylenediaminetetraacetate solution (manufactured by FUJIFILM Wako Pure Chemical Corporation), the number of cells in the cell suspension was observed under an inverted culture microscope (CK40, manufactured by Olympus Corporation) (magnification=10x), and the number of cells was measured (n=4 for each). […]

[3] = test system: chondrogenic progenitor ATDC5 cells; assay: Detection of glycosaminoglycan by Alcian blue staining (absorbance at 620 nm); settings: day 24 of culture
Description: as §1, §2
On day 24 of culture, the cells were fixed with 95% by volume ethanol, and then stained with Alcian blue staining solution (prepared with 1% Alcian blue and 3% acetic acid aqueous solution, pH=2.5), and glycosaminoglycan was detected.
Then, the Alcian blue dye of the stained cultured cells was solubilized with 6M guanidine hydrochloride, and the absorbance at 620 nm was measured using a plate reader (Infinite 200 PRO, manufactured by Tecan Japan Co., Ltd., for each liquiritin concentration and control, n=4). The measurement results are shown in FIG. 1 as meantstandard deviation based on relative values when the absorbance in the control is 100. […]

[4] = test system: chondrogenic progenitor ATDC5 cells; assay: Content of DNA in cell digestive fluid as index of cell number; settings: day 24 of culture; at 10 μM and 20 μM significant at P<0.01 vs control (FIG. 3)
Description: as §1
ATDC5 cells (obtained from RIKEN BioResource Research Center) were seeded at 1×10^4 cells/well in a microplate containing 0.5 mL of Dulbecco's modified Eagle medium (DMEM)/Ham's F-12 medium (manufactured by FUJIFILM Wako Pure Chemical Corporation), and cultured at 37° C. in the presence of 5% by volume carbon dioxide.
On days 3, 6, 9, 12, 15, 18 and 21 of culture, transferrin and sodium selenite, which are differentiation-inducing reagents, were each added to the aforementioned medium at final concentrations of 10 μg/mL and 30 nM, respectively, and further, the medium was replaced with a medium to which liquiritin was added at each final concentration of 5 μM, 10 μM, or 20 μM, and the culture was continued.
The case of same treatment without adding liquiritin (liquiritin concentration=0 μM) was used as a control. […]
The content of DNA in the above-mentioned sample was measured using a DNA quantification kit (“DNA Assay Kit”, manufactured by Cosmo Bio Company, Limited) (n=4 for each) and used as an index of cell number. […]

Structure (SMILES): O=C1C[C@@H](c2ccc(O[C@@H]3O[C@H](CO)[C@@H](O)[C@H](O)[C@H]3O)cc2)Oc2cc(O)ccc21 [liquiritin, (2S)-2,3-dihydro-7-hydroxy-2-[4-(β-D-glucopyranosyloxy)phenyl]-4H-1-benzopyran-4-one]
- amount of sulfated glycosaminoglycan contained in cell digestive fluid ([1]; 5 μM to 20 μM liquiritin, day 24 of culture, P<0.01 vs control (FIG. 2)): significant increase
- concentration promoting production of glycosaminoglycan by chondrocytes (as low as) ([1]; ATDC5 cells, conclusion from results): 5 µM
- cell number on day 24 of culture ([2]; at 10 μM and 20 μM significant at P<0.05 vs control (FIG. 4)): increased with the addition concentration
- cytotoxicity ([2]; concentration range 10 μM to 20 μM, ATDC5 cells): does not exhibit cytotoxicity
- absorbance at 620 nm of solubilized Alcian blue dye compared to the control ([3]; 20 μM liquiritin, P<0.05 (FIG. 1)): significant increase
- glycosaminoglycan stained with Alcian blue in cultured cells ([3]; not less than 10 μM liquiritin, vs control (FIG. 1)): increased
- content of DNA in the cell digestive fluid (index of cell number) [4]: increased with the addition concentration
